A word on the Km: it is the concentration of substrate that gives half-maximal velocity. As a reminder, the Ki is a measure of affinity in units of concentration, obtained from inhibition or displacement. Low values mean a stronger hold on the target, high ones a looser hold on the target.

This is an account of results in patent US20250237649A1 (priority 2021, published 2025).

Read-outs that look alike come from different tables or passages of the source. Residues, ends and D or L forms follow the SMILES beside them. *: point of attachment. Dabcyl = CN(C)c1ccc(N=Nc2ccc(C(=O)*)cc2)cc1; EDANS = O=S(=O)(O)c1cccc2c(NCCN*)cccc12; pNA = O=[N+]([O-])c1ccc(N*)cc1; Cbz = O=C(OCc1ccccc1)*

Experiment [1] addresses T1, Hip1 (Mycobacterium tuberculosis, UniProt P9WHR3).
T1 sequence (P9WHR3 31-520): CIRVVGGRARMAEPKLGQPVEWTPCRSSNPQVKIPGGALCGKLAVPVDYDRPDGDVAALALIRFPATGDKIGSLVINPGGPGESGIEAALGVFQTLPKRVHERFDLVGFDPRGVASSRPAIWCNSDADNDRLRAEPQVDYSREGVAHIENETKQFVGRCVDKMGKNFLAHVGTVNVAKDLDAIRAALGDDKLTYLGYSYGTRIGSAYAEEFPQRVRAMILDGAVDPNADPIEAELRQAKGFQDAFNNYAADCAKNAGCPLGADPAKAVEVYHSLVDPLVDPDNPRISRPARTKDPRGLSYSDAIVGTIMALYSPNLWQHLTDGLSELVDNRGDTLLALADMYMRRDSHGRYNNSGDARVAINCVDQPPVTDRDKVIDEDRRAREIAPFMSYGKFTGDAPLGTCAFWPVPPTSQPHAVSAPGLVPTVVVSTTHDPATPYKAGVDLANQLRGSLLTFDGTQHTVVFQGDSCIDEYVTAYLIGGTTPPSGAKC
Nature of the experiment: Km determination of Hip1 substrates (Michaelis-Menten). The class given is biochemical.

The target of experiment [2] is T1, Hip1. Briefly: Inhibition of Hip1 (Ki determination). The class given is biochemical.
Where [3] appears, read: read-out: Km (fluorescent substrate).

With `CC(C)C[C@H](NC(=O)[C@H](CCCCN)NC(=O)[C@H](Cc1ccccc1)NC(=O)OCc1ccccc1)C(=O)Nc1ccc([N+](=O)[O-])cc1` [Cbz-Phe-Lys-Leu-pNa] (Cbz-Phe-Lys-Leu-pNA), on Hip1 [1] (three independent determinations averaged, read-out: Km (chromogenic substrate)), the Km worked out at 0.421 µM. For `COC(=O)C(=O)[C@H](C[C@@H]1CCNC1=O)NC(=O)[C@H](CCCCN)NC(=O)[C@H](Cc1ccccc1)NC(=O)OCc1ccccc1` [Inhibitor Compound 2, Cbz-Phe-Lys-Glnlac-CO—CO2Me], the Ki at Hip1 [2] was found to be 117 ± 15 pM.

Regarding `CC(C)C[C@H](NC(=O)CNC(=O)[C@H](CCCNC(=N)N)NC(=O)[C@H](CCCNC(=N)N)NC(=O)[C@H](C)NC(=O)[C@H](CCC(=O)O)NC(=O)c1ccc(N=Nc2ccc(N(C)C)cc2)cc1)C(=O)N[C@@H](CCC(=O)NCCNc1cccc2c(S(=O)(=O)O)cccc12)C(=O)N[C@@H](CCCNC(=N)N)C(=O)O` [UFNG1] (Dabcyl-EARRGLE(EDANS)R-OH), on Hip1 [1] (setting [3]), the Km was found to be 17.5 µM. On the same count and under the same terms, as for `CC(C)C[C@H](NC(=O)CNC(=O)[C@H](CCC(N)=O)NC(=O)[C@H](CCCCN)NC(=O)[C@H](Cc1ccccc1)NC(=O)[C@H](CCC(=O)O)NC(=O)c1ccc(N=Nc2ccc(N(C)C)cc2)cc1)C(=O)N[C@@H](CCC(=O)NCCNc1cccc2c(S(=O)(=O)O)cccc12)C(=O)N[C@@H](CCCNC(=N)N)C(=O)O` [UFNG2, Dabcyl-Glu-Phe-Lys-Gln-Gly-Leu-Glu-(EDANS)-Arg] (Dabcyl-EFKQGLE(EDANS)R-OH), the figure is 37.6 µM.
